Measured values taken from US20070238700A1, “N-PHENYL-1,1,1-TRIFLUOROMETHANESULFONAMIDE HYDRAZONE DERIVATIVE COMPOUNDS AND THEIR USAGE IN CONTROLLING PARASITES” (priority 2006, published 2007).
Where two headings read alike, the source gives them in different places.

Columns and labels:
Ctenocephalides felis [1] = tested on: Ctenocephalides felis
Summary of the method: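 Adult cat fleas (3–7 days post-emergence), 15 per flask in ≥4 replicates, exposed to a dried acetone residue at 1.26 μg/cm^2 on a Coatasil-treated glass flask base. Held at 25±1° C, 75±5% humidity; mortality (immobile or unable to right) scored at 8, 24 and/or 48 h.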

Ctenocephalides felis [2] = assay: Ctenocephalides felis adulticide assay: C. felis dose response (LC50)
Description: c) Ctenocephalides felis Adulticide Assay: C. felis Dose Response
The purpose of this example was to determine the LC50 when cat fleas were contacted with a glass surface treated with sample compounds or formulations prepared as described above. […] The test species was the cat flea (Ctenocephalides felis). The strain used was obtained from external suppliers as pupae and held in the laboratory under testing conditions until the adults had emerged. Fifteen (15) fleas were used in a minimum of four replicates for each dose level (total of 60 fleas per dose level). The insects were selected to be in the adult life stage, aged between 3 and 7 days post emergence.
The compounds to be tested were dissolved in acetone just prior to testing. Samples of compounds were stored in a refrigerator (5±1° C.) unless otherwise specified. During the mortality testing, the temperature was maintained at 25±1° C. Humidity was maintained at 75±5%. The base (area=159 mm^2) of a 100 mL glass Erlenmeyer (conical) flask provided the treatment surface. Flasks were pretreated with Coatasil™ glass treatment to maximise bio-availability of test compounds by preventing them from binding to the glass surface.
The base of the 100 mL Erlenmeyer flask was treated with 0.5 mL of test sample in acetone and gently swirled. This volume was sufficient to cover the base of the flask. Flasks were left to dry for 24 hours before flea exposure. Adult cat fleas were lightly anaesthetised by cooling and then placed into a sorting chamber, which allowed fleas to revive and jump into the Erlenmeyer flasks. Fifteen (15) adult cat fleas were collected in each flask. The top of the flasks were then covered in Parafilm™ and small holes made to allow gas exchange. A 0.5 mL volume of acetone was applied to the base of an Erlenmeyer flask and the testing proceeded in the same manner described above. Cat fleas in the treatment containers were held under testing conditions for 24 hours. Mortality resulting from the treatments was recorded at 8 and 24 hours.

Rhipicephalus sanguineus [3] = assay: Rapid screening protocol for topical application on brown dog ticks (% mortality)
Method: d) Rapid Screening Protocol for Topical Application on Brown Dog Ticks (Rhipicephalus sanguineus)
The aim of the test was to determine the presence of significant acaricidal activity in sample compounds or formulations when applied topically on brown dog ticks. A tick was defined as dead if it gave no apparent response when touched lightly and observed for 1 minute. To assess the experimental compound for acaricidal activity, a single dose level was chosen based on known results from previous experiments with a commercially available active reference compound. Both permethrin and fipronil were employed as reference compounds. The insect species tested was the Brown Dog Tick (Rhipicephalus sanguineus). Mixed sex adult ticks were used for tests. The strain used was cultured by von Berky Veterinary Services, Woody Point, QLD, AU and supplied as unfed adult ticks (mixed sex). Ticks were maintained in controlled conditions (temp. 18°±2° C., humidity 75±5% RH).
Test compounds (formulations or active ingredients) were stored in a refrigerator (5±1° C.) unless otherwise specified. Temperature was maintained at 25±1° C. and the humidity was ambient. The screening dose chosen was higher than that known to kill 90% of insects (LD90) using the reference compound. In the case of topical application of active compounds on adult ticks, the reference compound was fipronil and the dose chosen was 10 μg of active per tick (=10 μg of fipronil/1 μl of acetone). Ticks were each treated on the abdomen with 1 μL of a single dose level of test sample in acetone; ten ticks were treated with solvent only (acetone) in each test. Tests were replicated 4 times (total of 40 ticks treated). Ticks were held in recovery containers maintained under appropriate rearing conditions for 24 hours. Mortality resulting from the treatments was recorded at 24 hours. Pooled 24 hour mortality data were converted to percentages.

Rhipicephalus sanguineus [4] = assay: Dose response protocol for topical application on brown dog ticks (LD50); settings: 24 h mortality, probit analysis
Method: e) Dose response protocol for topical application on brown dog ticks (Rhipicephalus sanguineus): The test determines the level of insecticidal activity of sample compounds or formulations when applied topically on brown dog ticks. Sample compounds were stored prior to use in a freezer (−5±1° C.), unless otherwise specified.
• Mortality: A tick is defined as dead after it gives no apparent response when touched lightly or gently breathed upon, while observed for 30 seconds. • LD50 (Lethal Dose 50): The dose of a topically applied treatment at which 50% of the dog ticks are killed. • Reference compound: To assess an experimental compound for significant acaricidal activity a single dose level is chosen, which is based upon known results from previous experiments using a commercially available active i.e., a reference compound. The reference compound selected is one in common use, and one that has a similar mode of action against the Brown Dog Tick (i.e., the test species), • Recovery container: A recovery container consists of a 500 ml round plastic container measuring 115 mm diameter and 70 mm height, with a tight fitting lid that has 10 small (˜1 mm) holes inserted for air exchange. A 90 mm diameter piece of filter paper was placed on the bottom of the container and moistened with 1 mL of distilled water.
Adult, mixed sex, Brown Dog Ticks (Rhipicephalus sanguineus) were reared as follows: (i) cultured, (ii) transferred unfed, to a testing laboratory, and (iii) then maintained under controlled conditions (i.e., temp. 18°±2° C., humidity 75±5% RH). The ticks used were selected for vigor prior to testing, i.e., capable of actively walking and responsive to being touched or gently breathed upon.
During the testing, the temperature was maintained at 25±1° C. and the humidity was ambient. Seven dose levels (concentrations) of sample compound, in the form of serial dilutions in acetone, were derived from a pilot study and covered a range that produced very low to very high mortality. Groups of ten ticks were treated topically (on the abdomen) with 1 μL of a single dose level of the sample compound. Each test was replicated four times, i.e., employing a total of 40 ticks per dose level of each sample compound. As a control, ten ticks were treated with solvent only (acetone) for each test. Following the treatment, the ticks were held in recovery containers maintained under appropriate rearing conditions for 24 hours. Mortality resulting from the treatments was recorded at 24 hours. […] Press, London (1971).]

SMILES	C. felis Mortality (%) 24 h (Ctenocephalides felis [1])	C. felis LC50 (Ctenocephalides felis [2]; data from laboratory 1) [ppm]	R. sanguineus Mortality (%) 24 h (Rhipicephalus sanguineus [3]; data from laboratory 1)	R. sanguineus Mortality (%) 24 h (Rhipicephalus sanguineus [3]; data from laboratory 2) [%]	C. felis Mortality (%) 8 h (Ctenocephalides felis [1]) [%]	C. felis LC50 (Ctenocephalides felis [2]) [ppm]	R. sanguineus LD50 (Rhipicephalus sanguineus [4]) [μg/tick]	C. felis Mortality (%) 48 h (Ctenocephalides felis [1]) [%]
CC(=NN(C)c1ccccc1)c1cc(Cl)ccc1NS(=O)(=O)C(F)(F)F [Compound 9]	100^B %	0.86	88%	98	–	–	–	–
CC(=NN1CCOCC1)c1cc(Cl)ccc1NS(=O)(=O)C(F)(F)F [Compound 20]	100%	–	95^A %	–	100	0.86	0.75	–
CC(=NN1CCCCC1)c1cc(Cl)ccc1NS(=O)(=O)C(F)(F)F [Compound 21, N-[2-[1-(1-piperidyl)imino]ethyl-4-chlorophenyl]-trifluoromethanesulfonamide]	100%	0.90	78^A %	–	100	–	0.64	–
CC(=NN1CCOC1=O)c1cc(Cl)ccc1NS(=O)(=O)C(F)(F)F [Compound 23]	100%	–	95^A %	–	100	2.0	0.99	–
CCCN(N=C(C)c1cc(Cl)ccc1NS(=O)(=O)C(F)(F)F)c1ccccc1 [Compound 25]	100%	–	75^A %	–	100	1.8	1.2	–
CCN(N=C(C)c1cc(Cl)ccc1NS(=O)(=O)C(F)(F)F)c1ccc(Cl)cc1 [Compound 26]	100%	–	–	97	–	0.12	5.4	100
CCCN(N=C(C)c1cc(Cl)ccc1NS(=O)(=O)C(F)(F)F)c1ccc(Cl)cc1 [Compound 27]	100%	–	–	95	–	0.23	5.5	100
CC(=NN(c1ccccc1Cl)C(C)C)c1cc(Cl)ccc1NS(=O)(=O)C(F)(F)F [Compound 56]	99%	–	–	45	51	–	–	–
CC(=NN(C)c1ccc(Br)cc1)c1cc(Cl)ccc1NS(=O)(=O)C(F)(F)F [Compound 63]	100%	–	–	100	100	2.4	–	–
CC(=NN(C)c1ccc(C(F)(F)F)cc1)c1cc(Cl)ccc1NS(=O)(=O)C(F)(F)F [Compound 65, N-[2-[1-(N′-methyl-(4-trifluoromethyl)phenyl)hydrazono]-ethyl-4-chlorophenyl]-trifluoromethanesulfonamide]	100%	–	–	100	100	–	–	–
CC(=NN(c1cccc(Cl)c1Cl)C(C)C)c1cc(Cl)ccc1NS(=O)(=O)C(F)(F)F [Compound 66]	100%	–	–	48	18	–	–	–
CC(=NN(C)c1ccc(C)cc1)c1cc(Cl)ccc1NS(=O)(=O)C(F)(F)F [Compound 75]	100%	–	–	100	100	1.4	–	–
CC(=NN(c1cccc(F)c1)C(C)C)c1cc(Cl)ccc1NS(=O)(=O)C(F)(F)F [Compound 77]	100%	–	–	73	91	–	–	–
CCCN(N=C(C)c1cc(Cl)ccc1NS(=O)(=O)C(F)(F)F)c1ccc(Cl)c(Cl)c1 [Compound 97]	100%	–	–	73	52	–	–	–
CCCN(N=C(C)c1cc(Cl)ccc1NS(=O)(=O)C(F)(F)F)c1cc(Cl)cc(Cl)c1 [Compound 98]	98%	–	–	60	19	–	–	–
CCCN(N=C(C)c1cc(Cl)ccc1NS(=O)(=O)C(F)(F)F)c1c(Cl)cccc1Cl [Compound 103]	100%	–	–	40	56	–	–	–
CCCN(N=C(C)c1cc(Cl)ccc1NS(=O)(=O)C(F)(F)F)c1ccc(F)cc1 [Compound 104]	100%	–	–	75	16	–	–	–
CC(=NN(C)c1ccccc1)c1cc(Cl)ccc1N(C)S(=O)(=O)C(F)(F)F [Compound 109, N-[2-[1-(N′-methyl-N′-phenyl)hydrazono]ethyl-4-chlorophenyl]-N-methyl-trifluoromethanesulfonamide]	100%	–	–	8	73	–	–	–
CCOCN(c1ccc(Cl)cc1C(C)=NN(C)c1ccccc1)S(=O)(=O)C(F)(F)F [Compound 112]	100%	–	–	5	99	–	–	–
CC(=NN(C)c1ccccc1)c1ccc(C(F)(F)F)cc1NS(=O)(=O)C(F)(F)F [Compound 120, N-[2-[1-(N′-methyl-N′-phenyl)hydrazono]-ethyl-5-trifluoromethylphenyl]-trifluoromethanesulfonamide]	83%	–	–	58	28	–	–	–
CC(=NN(C)C)c1ccccc1NS(=O)(=O)C(F)(F)F [Compound 124]	94%	–	–	88	59	–	–	–
CCC(=NN1CCCCCC1)c1cc(Cl)ccc1NS(=O)(=O)C(F)(F)F [Compound 131]	100%	–	–	98	43	–	–	–
C/C(=N\N(CCC#N)C(=O)C(C)C)c1cc(Cl)ccc1NS(=O)(=O)C(F)(F)F [Compound 223]	100%	–	–	100	45	–	–	–
